According to patent publication US20250230193A1, “CYCLIC COMPOUND HAVING SELECTIVE KRAS INHIBITORY EFFECT ON HRAS AND NRAS” (CHUGAI SEIYAKU KABUSHIKI KAISHA, priority 2022, published 2025):
Where a SMILES comes first, the peptide text is derived from it. Bridges are numbered along the chain shown (N, C = ends). [ ]: non-standard residue; d: D form. The star is where a group is joined. hPhe(3-Cl-4-CF3) = N[C@@H](CCc1ccc(C(F)(F)F)c(Cl)c1)C(=O)O; NPrPhe(4-CF3) = CCCN[C@@H](Cc1ccc(C(F)(F)F)cc1)C(=O)O; NMeGly(cPent) = CN[C@H](C(=O)O)C1CCCC1; Pro(4,4-F2) = O=C(O)[C@@H]1CC(F)(F)CN1; Hyp = O=C(O)[C@@H]1C[C@@H](O)CN1; NMeD = CN[C@@H](CC(=O)O)C(=O)O; NMeL = CN[C@@H](CC(C)C)C(=O)O; N(Me)CH2CH2OMe = COCCN(C)*; Morpholide = C1CN(*)CCO1; NMeA = CN[C@@H](C)C(=O)O; Ac5c = NC1(C(=O)O)CCCC1; Aze = O=C(O)[C@@H]1CCN1; Ac4c = NC1(C(=O)O)CCC1; Sar = CNCC(=O)O

Tests used:
[1] = biological target: GDP-bound NRAS wild-type protein (Homo sapiens, UniProt P01111); assay: Binding to NRAS by surface plasmon resonance (SPR), Single Cycle Kinetics; details: KD ratio NRAS/KRAS, SPR
[2] = biological target: GDP-bound HRAS wild-type protein (Homo sapiens, UniProt P01112); assay: Binding to HRAS by surface plasmon resonance (SPR), Single Cycle Kinetics; details: KD ratio HRAS/KRAS, SPR
Chain of GDP-bound HRAS wild-type protein (P01112 whole entry): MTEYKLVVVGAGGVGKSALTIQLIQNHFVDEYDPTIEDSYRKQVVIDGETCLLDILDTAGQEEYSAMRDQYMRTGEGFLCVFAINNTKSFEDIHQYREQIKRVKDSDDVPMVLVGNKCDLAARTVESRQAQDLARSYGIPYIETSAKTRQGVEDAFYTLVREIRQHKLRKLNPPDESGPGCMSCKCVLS

Chain of GDP-bound NRAS wild-type protein (P01111 whole entry): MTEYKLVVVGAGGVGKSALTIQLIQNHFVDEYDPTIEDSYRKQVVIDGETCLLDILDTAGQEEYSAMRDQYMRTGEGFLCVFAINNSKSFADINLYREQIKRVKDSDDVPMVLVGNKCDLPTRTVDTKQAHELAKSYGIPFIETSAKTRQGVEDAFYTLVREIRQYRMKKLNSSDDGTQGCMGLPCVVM

| Structure (SMILES) | NRAS/KRAS (ratio of KD for GDP-bound NRAS wild-type to KD for KRAS) [1] | HRAS/KRAS (ratio of KD for GDP-bound HRAS wild-type to KD for KRAS) [2] |
| --- | --- | --- |
| CCCN1C(=O)[C@@H]2CCN2C(=O)[C@H](C)N(C)C(=O)[C@H]([C@@H](C)CC)NC(=O)[C@H](CC(C)C)N(C)C(=O)C[C@@H](C(=O)N(C)C)NC(=O)[C@H](C2CCCC2)N(C)C(=O)C2(CCCC2)NC(=O)[C@@H]2C[C@@H](OCC)CN2C(=O)[C@H](CCc2ccc(C(F)(F)F)c(Cl)c2)NC(=O)CN(C)C(=O)[C@@H]1Cc1ccc(C(F)(F)F)cc1 [PP0383] ([NMeL]I[NMeA][Aze][NPrPhe(4-CF3)][Sar][hPhe(3-Cl-4-CF3)][Hyp](Et)[Ac5c][NMeGly(cPent)]D-NMe2; lactam N-11) | C (A compound having a KD ratio of 0.1 or more and less than 3 is denoted as C) | B (a compound having 3 or more and less than 10 is denoted as B) |
| CCCN1C(=O)[C@@H]2CCN2C(=O)[C@H](C)N(C)C(=O)[C@H]([C@@H](C)CC)NC(=O)[C@H](CC(C)C)N(C)C(=O)C[C@@H](C(=O)N(C)C)NC(=O)[C@H](C2CCCC2)N(C)C(=O)C2(CCC2)NC(=O)[C@@H]2C[C@@H](OCC)CN2C(=O)[C@H](CCc2ccc(C(F)(F)F)c(Cl)c2)NC(=O)CN(C)C(=O)[C@@H]1Cc1ccc(C(F)(F)F)cc1 [PP0384] ([NMeL]I[NMeA][Aze][NPrPhe(4-CF3)][Sar][hPhe(3-Cl-4-CF3)][Hyp](Et)[Ac4c][NMeGly(cPent)]D-NMe2; lactam N-11) | C (A compound having a KD ratio of 0.1 or more and less than 3 is denoted as C) | B (a compound having 3 or more and less than 10 is denoted as B) |
| CCCN1C(=O)[C@@H]2CCN2C(=O)CN(C)C(=O)[C@H]([C@@H](C)CC)NC(=O)[C@H](CC(C)C)N(C)C(=O)C[C@@H](C(=O)N(C)C)NC(=O)[C@H](C2CCCC2)N(C)C(=O)C2(CCC2)NC(=O)[C@@H]2CCCN2C(=O)[C@H](CCc2ccc(C(F)(F)F)c(Cl)c2)NC(=O)CN(C)C(=O)[C@@H]1Cc1ccc(C(F)(F)F)cc1 [PP0386] ([NMeL]I[Sar][Aze][NPrPhe(4-CF3)][Sar][hPhe(3-Cl-4-CF3)]P[Ac4c][NMeGly(cPent)]D-NMe2; lactam N-11) | C (A compound having a KD ratio of 0.1 or more and less than 3 is denoted as C) | B (a compound having 3 or more and less than 10 is denoted as B) |
| CCCN1C(=O)[C@@H]2CCN2C(=O)CN(C)C(=O)[C@H]([C@@H](C)CC)NC(=O)[C@H](CC(C)C)N(C)C(=O)C[C@@H](C(=O)N(C)C)NC(=O)[C@H](C2CCCC2)N(C)C(=O)C2(CCCC2)NC(=O)[C@@H]2CC(F)(F)CN2C(=O)[C@H](CCc2ccc(C(F)(F)F)c(Cl)c2)NC(=O)CN(C)C(=O)[C@@H]1Cc1ccc(C(F)(F)F)cc1 [PP0387] ([NMeL]I[Sar][Aze][NPrPhe(4-CF3)][Sar][hPhe(3-Cl-4-CF3)][Pro(4,4-F2)][Ac5c][NMeGly(cPent)]D-NMe2; lactam N-11) | C (A compound having a KD ratio of 0.1 or more and less than 3 is denoted as C) | B (a compound having 3 or more and less than 10 is denoted as B) |
| CCCN1C(=O)[C@@H]2CCN2C(=O)CN(C)C(=O)[C@H]([C@@H](C)CC)NC(=O)[C@H](CC(C)C)N(C)C(=O)C[C@@H](C(=O)N(C)C)NC(=O)[C@H](C2CCCC2)N(C)C(=O)C2(CCC2)NC(=O)[C@@H]2CC(F)(F)CN2C(=O)[C@H](CCc2ccc(C(F)(F)F)c(Cl)c2)NC(=O)CN(C)C(=O)[C@@H]1Cc1ccc(C(F)(F)F)cc1 [PP0388] ([NMeL]I[Sar][Aze][NPrPhe(4-CF3)][Sar][hPhe(3-Cl-4-CF3)][Pro(4,4-F2)][Ac4c][NMeGly(cPent)]D-NMe2; lactam N-11) | C (A compound having a KD ratio of 0.1 or more and less than 3 is denoted as C) | B (a compound having 3 or more and less than 10 is denoted as B) |
| CCCN1C(=O)[C@@H]2CCN2C(=O)CN(C)C(=O)[C@H]([C@@H](C)CC)NC(=O)[C@H](CC(C)C)N(C)C(=O)C[C@@H](C(=O)N(C)C)NC(=O)[C@H](C2CCCC2)N(C)C(=O)C2(CCCC2)NC(=O)[C@@H]2C[C@@H](OCC)CN2C(=O)[C@H](CCc2ccc(C(F)(F)F)c(Cl)c2)NC(=O)CN(C)C(=O)[C@@H]1Cc1ccc(C(F)(F)F)cc1 [PP0389] ([NMeL]I[Sar][Aze][NPrPhe(4-CF3)][Sar][hPhe(3-Cl-4-CF3)][Hyp](Et)[Ac5c][NMeGly(cPent)]D-NMe2; lactam N-11) | C (A compound having a KD ratio of 0.1 or more and less than 3 is denoted as C) | B (a compound having 3 or more and less than 10 is denoted as B) |
| CCCN1C(=O)[C@@H]2CCN2C(=O)CN(C)C(=O)[C@H]([C@@H](C)CC)NC(=O)[C@H](CC(C)C)N(C)C(=O)C[C@@H](C(=O)N(C)C)NC(=O)[C@H](C2CCCC2)N(C)C(=O)C2(CCC2)NC(=O)[C@@H]2C[C@@H](OCC)CN2C(=O)[C@H](CCc2ccc(C(F)(F)F)c(Cl)c2)NC(=O)CN(C)C(=O)[C@@H]1Cc1ccc(C(F)(F)F)cc1 [PP0390] ([NMeL]I[Sar][Aze][NPrPhe(4-CF3)][Sar][hPhe(3-Cl-4-CF3)][Hyp](Et)[Ac4c][NMeGly(cPent)]D-NMe2; lactam N-11) | C (A compound having a KD ratio of 0.1 or more and less than 3 is denoted as C) | B (a compound having 3 or more and less than 10 is denoted as B) |
| CCCN1C(=O)CN(C)C(=O)CN(C)C(=O)[C@H]([C@@H](C)CC)NC(=O)[C@H](CC(C)C)N(C)C(=O)C[C@@H](C(=O)N(C)CCOC)N(C)C(=O)[C@H](C2CCCC2)N(C)C(=O)C2(CCCC2)NC(=O)[C@@H]2CCCN2C(=O)[C@H](CCc2ccc(C(F)(F)F)c(Cl)c2)NC(=O)CN(C)C(=O)[C@@H]1Cc1ccc(C(F)(F)F)cc1 [PP0391] ([NMeL]I[Sar][Sar][NPrPhe(4-CF3)][Sar][hPhe(3-Cl-4-CF3)]P[Ac5c][NMeGly(cPent)][NMeD]-{N(Me)CH2CH2OMe}; lactam N-11) | B (a compound having 3 or more and less than 10 is denoted as B) | B (a compound having 3 or more and less than 10 is denoted as B) |
| CCCN1C(=O)CN(C)C(=O)CN(C)C(=O)[C@H]([C@@H](C)CC)NC(=O)[C@H](CC(C)C)N(C)C(=O)C[C@@H](C(=O)N2CCOCC2)N(C)C(=O)[C@H](C2CCCC2)N(C)C(=O)C2(CCC2)NC(=O)[C@@H]2C[C@@H](OCC)CN2C(=O)[C@H](CCc2ccc(C(F)(F)F)c(Cl)c2)NC(=O)CN(C)C(=O)[C@@H]1Cc1ccc(C(F)(F)F)cc1 [PP0392] ([NMeL]I[Sar][Sar][NPrPhe(4-CF3)][Sar][hPhe(3-Cl-4-CF3)][Hyp](Et)[Ac4c][NMeGly(cPent)][NMeD]-Morpholide; lactam N-11) | B (a compound having 3 or more and less than 10 is denoted as B) | C (A compound having a KD ratio of 0.1 or more and less than 3 is denoted as C) |
| CCCN1C(=O)CN(C)C(=O)CNC(=O)[C@H]([C@@H](C)CC)NC(=O)[C@H](CC(C)C)N(C)C(=O)C[C@@H](C(=O)N2CCOCC2)N(C)C(=O)[C@H](C2CCCC2)N(C)C(=O)C2(CCC2)NC(=O)[C@@H]2CCCN2C(=O)[C@H](CCc2ccc(C(F)(F)F)c(Cl)c2)NC(=O)CN(C)C(=O)[C@@H]1Cc1ccc(C(F)(F)F)cc1 [PP0393] ([NMeL]IG[Sar][NPrPhe(4-CF3)][Sar][hPhe(3-Cl-4-CF3)]P[Ac4c][NMeGly(cPent)][NMeD]-Morpholide; lactam N-11) | B (a compound having 3 or more and less than 10 is denoted as B) | B (a compound having 3 or more and less than 10 is denoted as B) |
| CCCN1C(=O)CN(C)C(=O)CNC(=O)[C@H]([C@@H](C)CC)NC(=O)[C@H](CC(C)C)N(C)C(=O)C[C@@H](C(=O)N2CCOCC2)N(C)C(=O)[C@H](C2CCCC2)N(C)C(=O)C2(CCCC2)NC(=O)[C@@H]2CC(F)(F)CN2C(=O)[C@H](CCc2ccc(C(F)(F)F)c(Cl)c2)NC(=O)CN(C)C(=O)[C@@H]1Cc1ccc(C(F)(F)F)cc1 [PP0394] ([NMeL]IG[Sar][NPrPhe(4-CF3)][Sar][hPhe(3-Cl-4-CF3)][Pro(4,4-F2)][Ac5c][NMeGly(cPent)][NMeD]-Morpholide; lactam N-11) | C (A compound having a KD ratio of 0.1 or more and less than 3 is denoted as C) | C (A compound having a KD ratio of 0.1 or more and less than 3 is denoted as C) |
| CCCN1C(=O)CN(C)C(=O)CNC(=O)[C@H]([C@@H](C)CC)NC(=O)[C@H](CC(C)C)N(C)C(=O)C[C@@H](C(=O)N2CCOCC2)N(C)C(=O)[C@H](C2CCCC2)N(C)C(=O)C2(CCC2)NC(=O)[C@@H]2CC(F)(F)CN2C(=O)[C@H](CCc2ccc(C(F)(F)F)c(Cl)c2)NC(=O)CN(C)C(=O)[C@@H]1Cc1ccc(C(F)(F)F)cc1 [PP0395] ([NMeL]IG[Sar][NPrPhe(4-CF3)][Sar][hPhe(3-Cl-4-CF3)][Pro(4,4-F2)][Ac4c][NMeGly(cPent)][NMeD]-Morpholide; lactam N-11) | B (a compound having 3 or more and less than 10 is denoted as B) | C (A compound having a KD ratio of 0.1 or more and less than 3 is denoted as C) |
| CCCN1C(=O)CN(C)C(=O)CNC(=O)[C@H]([C@@H](C)CC)NC(=O)[C@H](CC(C)C)N(C)C(=O)C[C@@H](C(=O)N2CCOCC2)N(C)C(=O)[C@H](C2CCCC2)N(C)C(=O)C2(CCCC2)NC(=O)[C@@H]2C[C@@H](OCC)CN2C(=O)[C@H](CCc2ccc(C(F)(F)F)c(Cl)c2)NC(=O)CN(C)C(=O)[C@@H]1Cc1ccc(C(F)(F)F)cc1 [PP0396] ([NMeL]IG[Sar][NPrPhe(4-CF3)][Sar][hPhe(3-Cl-4-CF3)][Hyp](Et)[Ac5c][NMeGly(cPent)][NMeD]-Morpholide; lactam N-11) | B (a compound having 3 or more and less than 10 is denoted as B) | C (A compound having a KD ratio of 0.1 or more and less than 3 is denoted as C) |
